This note sets out measurements from patent US20250092056A1, “URACIL DERIVATIVES HAVING VIRUS REPLICATION INHIBITORY ACTIVITY AND PHARMACEUTICAL COMPOSITION COMPRISING THE SAME” (Shionogi & Co., Ltd., priority 2022, published 2025).

The test system of one experiment is SARS-CoV-2. Briefly: Cytopathic effect (CPE) suppression effect confirmation test using HEK293T/ACE2-TMPRSS2 cells. It counts as cell-based. The following applies: Severe acute respiratory syndrome coronavirus 2, HEK-293T; 50% SARS-CoV-2 infected cell death inhibitory concentration; HEK293T/ACE2-TMPRSS2 cells; read-out: EC50. In general terms: Damage to the host cells serves as the signal in cytopathic effect assays.

The target of experiment [1] is Recombinant SARS-CoV-2 3CL Protease (Severe acute respiratory syndrome coronavirus 2 (2019-nCoV) (SARS-CoV-2), UniProt P0DTD1). The experiment can be described thus: biochemical. It counts as biochemical. The following applies: 50% SARS-CoV-2 3CL protease inhibitory concentration; read-out: IC50.

What is called EC50 is the concentration giving half of the maximal effect. Usually IC50 stands for the concentration at which inhibition is half-maximal.

Take `N#CCn1c(C2CC2)c(-c2ccc(F)c(Cl)c2)c(=O)n(-c2cncc(Cl)c2)c1=O` [Compound I-388]: the EC50 in the experiment on SARS-CoV-2 is < 100 nM. Also, in experiment [1], the IC50 is < 10 nM.
The corresponding values for `COCC1CN(c2c(-c3ccc(F)c(Cl)c3)c(=O)n(-c3cncc(C(F)F)n3)c(=O)n2CC#N)C1` [Compound I-389] are < 100 nM and < 10 nM.
The corresponding values for `N#CCn1c(C2CC(F)(C3CC3)C2)c(-c2ccc(F)c(Cl)c2)c(=O)n(-c2cncc(C(F)F)n2)c1=O` (stereo not drawn) [Compound I-390] are < 100 nM and < 10 nM.
As for `N#CCn1c(CCC2CC(F)(F)C2)c(-c2ccc(F)c(Cl)c2)c(=O)n(-c2cncc(Cl)c2)c1=O` [Compound I-391], the concentration for a half-maximal effect (EC50) in the experiment with SARS-CoV-2 is < 100 nM. Further, the IC50 in experiment [1] is < 10 nM.
As for `N#CCn1c(C2CC(F)(F)C2)c(-c2ccc(F)c(Cl)c2)c(=O)n(-c2cncc(Cl)c2)c1=O` [Compound I-394], the EC50 in the experiment on SARS-CoV-2 was < 100 nM. In addition, the IC50 in experiment [1] is < 10 nM.
With `N#CCn1c(C2CCC2)c(-c2ccc(F)c(Cl)c2)c(=O)n(-c2cncc(Cl)c2)c1=O` [Compound I-395], the concentration giving a half-maximal response (EC50) in the experiment with SARS-CoV-2 was < 100 nM. The IC50 in experiment [1] was < 10 nM.
The corresponding values for `COC1CN(c2c(-c3ccc(F)c(Cl)c3)c(=O)n(-c3cncc(C(F)F)n3)c(=O)n2CC#N)C1` [Compound I-396] are < 100 nM and < 10 nM.
For `N#CCn1c(N2CCC(C(F)F)CC2)c(-c2ccc(F)c(F)c2)c(=O)n(-c2cncc(Cl)c2)c1=O` [Compound I-397], the EC50 with SARS-CoV-2 was < 100 nM. Moreover, the IC50 in experiment [1] was < 10 nM.
Regarding `N#CCn1c(N2CCC(C(F)F)CC2)c(-c2ccc(F)c(C#N)c2)c(=O)n(-c2cncc(Cl)c2)c1=O` [Compound I-398], the EC50 in the experiment on SARS-CoV-2 was < 100 nM. Further, the IC50 in experiment [1] was < 10 nM.
The corresponding values for `N#CCn1c(N2CC[C@@](O)(C(F)F)C2)c(-c2ccc(F)c(Cl)c2)c(=O)n(-c2cncc(C#N)c2)c1=O` [Compound I-399] are < 100 nM and < 10 nM.
The corresponding values for `N#CCn1c(N2CC[C@](O)(C(F)F)C2)c(-c2ccc(F)c(Cl)c2)c(=O)n(-c2cncc(C#N)c2)c1=O` [Compound I-400] are < 100 nM and < 10 nM.
With `N#CCn1c(N2CCC(F)(F)CC2)c(-c2ccc(F)c(F)c2)c(=O)n(-c2cncc(Cl)c2)c1=O` [Compound I-401], the EC50 with SARS-CoV-2 was < 100 nM. In addition, the IC50 in experiment [1] is < 10 nM.
The corresponding values for `N#CCn1c(N2CCC(C(F)(F)F)CC2)c(-c2ccc(F)c(C#N)c2)c(=O)n(-c2cncc(Cl)c2)c1=O` [Compound I-402] are < 100 nM and < 10 nM.
The corresponding values for `N#CCn1c(N2CCC(F)(F)CC2)c(-c2ccc(F)c(Cl)c2)c(=O)n(-c2cncc(C#N)c2)c1=O` [Compound I-403] are < 100 nM and < 10 nM.
The corresponding values for `N#CCn1c(N2CCC(C(F)F)CC2)c(-c2ccc(F)c(Cl)c2)c(=O)n(-c2cncc(C#N)c2)c1=O` [Compound I-404] are < 100 nM and < 10 nM.
Turning to `CCCNC(=O)c1c(-c2ccc(F)c(Cl)c2)c(=O)n(-c2cncc(Cl)c2)c(=O)n1CC#N` [Compound I-405], the EC50 in the experiment with SARS-CoV-2 lay in the range of 100 to 1000 nM. Also, in experiment [1], the IC50 is > 100 nM.
As to `CC(C)NC(=O)c1c(-c2ccc(F)c(Cl)c2)c(=O)n(-c2cncc(Cl)c2)c(=O)n1CC#N` [Compound I-406], in the experiment on SARS-CoV-2, the EC50 lay in the range of 1000 to 5000 nM. Also, in experiment [1], the IC50 was > 100 nM.
The corresponding values for `N#CCn1c(CC2(O)CCC2)c(-c2ccc(F)c(Cl)c2)c(=O)n(-c2cncc(Cl)c2)c1=O` [Compound I-407] are < 100 nM and 10 to 100 nM.
As to `N#CCn1c(N2CC(OC(F)(F)F)C2)c(-c2ccc(F)c(Cl)c2)c(=O)n(-c2cncc(OCF)n2)c1=O` [Compound I-408], the EC50 in the experiment with SARS-CoV-2 is < 100 nM. Moreover, in experiment [1], the half-maximal inhibitory concentration (IC50) is < 10 nM.
The corresponding values for `N#CCn1c(N2CC(CO)C2)c(-c2ccc(F)c(Cl)c2)c(=O)n(-c2cncc(OCF)n2)c1=O` [Compound I-409] are < 100 nM and < 10 nM.
`N#CCn1c(N2CC(F)(C3CC3)C2)c(-c2ccc(F)c(Cl)c2)c(=O)n(-c2cncc(OCF)n2)c1=O` [Compound I-410]: the EC50 in the experiment on SARS-CoV-2 is < 100 nM. Also, in experiment [1], the half-maximal inhibitory concentration (IC50) is < 10 nM.
The corresponding values for `N#CCn1c(N2CC(O)(C(F)F)C2)c(-c2ccc(F)c(Cl)c2)c(=O)n(-c2cncc(OCF)n2)c1=O` [Compound I-411] are < 100 nM and < 10 nM.
The corresponding values for `N#CCn1c(N2CCC(C(F)F)CC2)c(-c2ccc(F)c(F)c2)c(=O)n(-c2cncc(C#N)c2)c1=O` [Compound I-412] are < 100 nM and < 10 nM.
The corresponding values for `N#CCn1c(N2CCC(C(F)F)CC2)c(-c2ccc(F)c(C(F)F)c2)c(=O)n(-c2cncc(C#N)c2)c1=O` [Compound I-413] are < 100 nM and < 10 nM.
Turning to `CC(C)(O)CCc1c(-c2ccc(F)c(Cl)c2)c(=O)n(-c2cncc(C#N)c2)c(=O)n1CC#N` [Compound I-414], in the experiment on SARS-CoV-2, the EC50 is < 100 nM. The IC50 in experiment [1] was < 10 nM.
Regarding `N#CCn1c(N2CC(OC(F)F)C2)c(-c2ccc(F)c(C(F)F)c2)c(=O)n(-c2cncc(C#N)c2)c1=O` [Compound I-415], in the experiment with SARS-CoV-2, the EC50 is < 100 nM. The IC50 in experiment [1] is < 10 nM.
For `N#CCn1c(N2CC(O)C2)c(-c2ccc(F)c(C(F)F)c2)c(=O)n(-c2cncc(C#N)c2)c1=O` [Compound I-416], the EC50 in the experiment on SARS-CoV-2 is < 100 nM. The IC50 in experiment [1] was < 10 nM.
In the case of `N#CCn1c(N2CCC(F)(F)CC2)c(-c2ccc(F)c(C(F)F)c2)c(=O)n(-c2cncc(C#N)c2)c1=O` [Compound I-417], the EC50 in the experiment with SARS-CoV-2 is < 100 nM. Further, the IC50 in experiment [1] was < 10 nM.
For the compound `CCOC1CN(c2c(-c3ccc(F)c(Cl)c3)c(=O)n(-c3cncc(C(F)F)n3)c(=O)n2CC#N)C1` [Compound I-418], the EC50 in the experiment with SARS-CoV-2 is < 100 nM. Also, the IC50 in experiment [1] is < 10 nM.
Consider `N#CCn1c(N2CC(OC(F)F)C2)c(-c2ccc(F)c(Cl)c2)c(=O)n(-c2cncc(OCF)n2)c1=O` [Compound I-420], for which, in the experiment on SARS-CoV-2, the EC50 was < 100 nM. The IC50 in experiment [1] was < 10 nM.
For the compound `N#CCn1c(N2CC(C(F)(F)F)C2)c(-c2ccc(F)c(Cl)c2)c(=O)n(-c2cncc(OCF)n2)c1=O` [Compound I-421], the EC50 in the experiment on SARS-CoV-2 is < 100 nM. Further, in experiment [1], the IC50 is < 10 nM.
As to `N#CCn1c(N2CCC(C(F)F)CC2)c(-c2ccc(F)c(Cl)c2)c(=O)n(-c2cncc(OCF)n2)c1=O` [Compound I-422], the EC50 with SARS-CoV-2 was < 100 nM. The IC50 in experiment [1] was < 10 nM.
Take `N#CCn1c(CCC2(O)CCC2)c(-c2ccc(F)c(C(F)F)c2)c(=O)n(-c2cncc(C#N)c2)c1=O` [Compound I-424]: in the experiment on SARS-CoV-2, the EC50 is < 100 nM. In experiment [1], the IC50 is < 10 nM.
The corresponding values for `N#CCn1c(CCC2(O)CCC2)c(-c2ccc(F)c(C(F)F)c2)c(=O)n(-c2cncc(Cl)c2)c1=O` [Compound I-425] are < 100 nM and < 10 nM.
With `N#CCn1c(N2CC3(C2)CC(F)(F)C3)c(-c2ccc(F)c(Cl)c2)c(=O)n(-c2cc(Cl)c[n+]([O-])c2)c1=O` [Compound I-426], the EC50 in the experiment with SARS-CoV-2 was < 100 nM. Moreover, the IC50 in experiment [1] was < 10 nM.
In the case of `COCc1c(-c2ccc(F)c(Cl)c2)c(=O)n(-c2cncc(Cl)c2)c(=O)n1CC#N` [Compound I-435], the EC50 in the experiment on SARS-CoV-2 is < 100 nM. Moreover, in experiment [1], the concentration for half-maximal inhibition (IC50) is 10 to 100 nM.
Turning to `N#CCn1c(CCC2(O)CCC2)c(-c2ccc(F)c(F)c2)c(=O)n(-c2cncc(Cl)c2)c1=O` [Compound I-436], in the experiment on SARS-CoV-2, the 50% effective concentration (EC50) was < 100 nM. The IC50 in experiment [1] is < 10 nM.
In the case of `N#CCn1c(N2CC(OC(F)F)C2)c(-c2ccc(F)c(Cl)c2)c(=O)n(-c2cncc(C#N)c2)c1=O` [Compound I-437], the half-maximal effective concentration (EC50) in the experiment with SARS-CoV-2 was < 100 nM. Further, the IC50 in experiment [1] was < 10 nM.
The corresponding values for `C#CCn1c(C)c(-c2ccc(F)c(Cl)c2)c(=O)n(-c2cncc(Cl)c2)c1=O` [Compound I-438] are < 100 nM and < 10 nM.
Consider `N#CCn1c(N2CC(O)(c3ncccn3)C2)c(-c2ccc(F)c(C(F)F)c2)c(=O)n(-c2cncc(C#N)c2)c1=O` [Compound I-439], for which the half-maximal effective concentration (EC50) in the experiment on SARS-CoV-2 is < 100 nM. In addition, the concentration for half-maximal inhibition (IC50) in experiment [1] was < 10 nM.
Turning to `C#CCn1c(CC(C)(C)F)c(-c2ccc(F)c(Cl)c2)c(=O)n(-c2cncc(Cl)c2)c1=O` [Compound I-440], the EC50 with SARS-CoV-2 was < 100 nM. Besides, the IC50 in experiment [1] is < 10 nM.
The corresponding values for `Cc1c(-c2ccc(F)c(Cl)c2)c(=O)n(-c2cncc(Cl)c2)c(=O)n1CC(N)=O` [Compound I-441] are < 100 nM and 10 to 100 nM.
The corresponding values for `CC(=O)Cn1c(C)c(-c2ccc(F)c(Cl)c2)c(=O)n(-c2cncc(Cl)c2)c1=O` [Compound I-442] are < 100 nM and 10 to 100 nM.
On to `Cc1c(-c2ccc(F)c(Cl)c2)c(=O)n(-c2cncc(Cl)c2)c(=O)n1CC(=O)CO` [Compound I-443], for which the EC50 with SARS-CoV-2 was 100 to 1000 nM. Moreover, the IC50 in experiment [1] was > 100 nM.
The corresponding values for `CC(=O)OCC(=O)Cn1c(C)c(-c2ccc(F)c(Cl)c2)c(=O)n(-c2cncc(Cl)c2)c1=O` [Compound I-444] are 100 to 1000 nM and > 100 nM.
